Laboratory results published in patent US20210274788A1, “PESTICIDALLY ACTIVE ISOXAZOLINE D[…] AMIDE GROUP AND AN AZETIDINE SULFONE GROUP” (SYNGENTA CROP PROTECTION AG, priority 2018, published 2021).

Key:
Assay type in all cases: in vivo
[1] = test system: Euschistus heros (Neotropical Brown Stink Bug); assay: Euschistus heros (neotropical brown stink bug), sprayed soybean leaves, N2 nymphs; details: 120 h, application rate 200 ppm, 5 days after infestation, read-out: effect in at least one of the two categories (mortality or growth inhibition)
Protocol: Euschistus heros (Neotropical Brown Stink Bug)
Soybean leaves on agar in 24-well microtiter plates were sprayed with aqueous test solutions prepared from 10,000 ppm DMSO stock solutions. After drying the leaves were infested with N2 nymphs. The samples were assessed for mortality and growth inhibition in comparison to untreated samples 5 days after infestation.

[2] = test system: Plutella xylostella (Diamond Back Moth); assay: Plutella xylostella (diamond back moth), treated artificial diet, eggs; details: 192 h, application rate 200 ppm, 8 days after infestation, read-out: effect in at least one of the two categories (mortality or growth inhibition)
Protocol: Plutella xylostella (Diamond Back Moth)
24-well microtiter plates with artificial diet were treated with aqueous test solutions prepared from 10,000 ppm DMSO stock solutions by pipetting. After drying, Plutella eggs were pipetted through a plastic stencil onto a gel blotting paper and the plate was closed with it. The samples were assessed for mortality and growth inhibition in comparison to untreated samples 8 days after infestation.

[3] = test system: Spodoptera littoralis (Egyptian Cotton Leaf Worm); assay: Spodoptera littoralis (Egyptian cotton leaf worm), cotton leaf discs, L1 larvae; details: foliar, 72 h, application rate 200 ppm, 3 days after infestation
Protocol: Spodoptera littoralis (Egyptian Cotton Leaf Worm)
Cotton leaf discs were placed onto agar in 24-well microtiter plates and sprayed with aqueous test solutions prepared from 10,000 ppm DMSO stock solutions. After drying the leaf discs were infested with five L1 larvae. The samples were assessed for mortality, anti-feeding effect, and growth inhibition in comparison to untreated samples 3 days after infestation. Control of Spodoptera littoralis by a test sample is given when at least one of the categories mortality, anti-feedant effect, and growth inhibition is higher than the untreated sample.

CCOCN(C(=O)c1ccc(C2=NO[C@@](c3cc(Cl)c(F)c(Cl)c3)(C(F)(F)F)C2)cc1C)C1CN(S(=O)(=O)C(F)F)C1 [Compound A3, 4-[(5S)-5-(3,5-dichloro-4-fluoro-phenyl)-5-(trifluoromethyl)-4H-isoxazol-3-yl]-N-[1-(difluoromethylsulfonyl)azetidin-3-yl]-N-(ethoxymethyl)-2-methyl-benzamide]
≥ 80%: percent effect (mortality or growth inhibition) at 200 ppm [1] | percent effect (mortality or growth inhibition) at 200 ppm [2] | percent control (mortality, anti-feedant effect or growth inhibition) at 200 ppm [3]
